Results taken from ChEMBL document CHEMBL5352419, “Design, synthesis, and biological evaluation of tetrahydroquinoline amphiphiles as membrane-targeting antimicrobials against pathogenic bacteria and fungi” (Eur J Med Chem, 2022).
Converted amounts (≈) assume the structure as drawn. The source made the active and inactive calls. The calls are words filed in the database; no cut-off is given here.

Legend:
Pseudomonas aeruginosa = experiment: In vivo antibacterial activity against Pseudomonas aeruginosa ATCC9027 infected in keratitis C57BL/6 mouse model assessed as log reduction in bacterial load at 0.5 % administered topically 4 times per day for 3 days; type: functional; conditions: time 3 day
[1] = Cytotoxicity against mouse NCTC clone 929 cells assessed as viable cells at 3.125 ug/mL incubated for 24 hrs by CCK-8 assay relative to control; type: toxicity, cell-based; conditions: NCTC clone 929 (L929) cells, at 3.125 µg/mL, read-out: Activity
Escherichia coli [2] = experiment: Antibiofilm activity against Escherichia coli ATCC25922 assessed as inhibition of biofilm formation at 0.39 ug/mL incubated for 24 hrs by crystal violet staining based analysis relative to control; type: functional
Staphylococcus aureus [3] = experiment: Antimicrobial activity against Staphylococcus aureus ATCC29213 assessed as log reduction in microbial load at 8 times of MIC measured at 0.5 hr by time-kill kinetics assay; type: functional
[4] = Cytotoxicity against mouse J774.A1 cells assessed as viable cells at 3.125 ug/mL incubated for 24 hrs by CCK-8 assay relative to control; type: toxicity, cell-based; conditions: at 3.125 µg/mL, read-out: Activity
Escherichia coli [5] = experiment: Disruption of preformed biofilm in Escherichia coli ATCC25922 assessed as residual preformed biofilm at 0.78 ug/mL incubated for 24 hrs by crystal violet staining based analysis relative to control; type: functional; conditions: dose 0.78 µg/ml
Candida albicans [6] = experiment: Antimicrobial activity against Candida albicans CMCC98001 assessed as fungal growth inhibition incubated for 48 hrs by Sabouraud Dextrose broth based dilution assay; type: functional
Klebsiella pneumoniae [7] = experiment: Antimicrobial activity against Klebsiella pneumoniae ATCC14581 assessed as bacterial growth inhibition incubated for 24 hrs by Muller Hinton broth based dilution assay; type: functional
Candida albicans [8] = experiment: Antimicrobial activity against Candida albicans CMCC98001 assessed as fungal growth inhibition incubated for 48 hrs in presence of 24.3 ug/mL […] by Sabouraud Dextrose broth based dilution assay; type: functional
Staphylococcus aureus [9] = experiment: Antimicrobial activity against Staphylococcus aureus ATCC29213 assessed as bacterial killing at 1 to 8 times of MIC measured upto 24 hrs by time-kill kinetics assay; type: functional, organism-based
Staphylococcus aureus [10] = experiment: Induction of drug resistance in Staphylococcus aureus ATCC29213 assessed as change in MIC at sub-inhibitory concentration incubated for 21 to 22 passages; type: functional
[11] = Hemolytic activity in rabbit RBC incubated for 1 hr by absorbance based microplate reader assay; type: toxicity, cell-based, Oryctolagus cuniculus, Erythrocyte; conditions: rabbit red blood cells (erythrocytes)
[12] = Cytotoxicity against mouse J774.A1 cells assessed as viable cells at 12.5 ug/mL incubated for 24 hrs by CCK-8 assay relative to control; type: toxicity, cell-based; conditions: at 12.5 µg/mL, read-out: Activity
Candida albicans [13] = experiment: Antimicrobial activity against Candida albicans CMCC98001 assessed as fungal growth inhibition incubated for 48 hrs in presence of 175.5 ug/mL K+ by Sabouraud Dextrose broth based dilution assay; type: functional
Escherichia coli [14] = experiment: Antibiofilm activity against Escherichia coli ATCC25922 assessed as inhibition of biofilm formation at 3.125 ug/mL incubated for 24 hrs by crystal violet staining based analysis relative to control; type: functional
Staphylococcus aureus [15] = experiment: Antimicrobial activity against Staphylococcus aureus ATCC29213 assessed as bacterial growth inhibition incubated for 24 hrs in presence of 100 ug/mL Ca2+ by Muller Hinton broth based dilution assay; type: functional
Escherichia coli [16] = experiment: Antimicrobial activity against Escherichia coli ATCC25922 assessed as bacterial growth inhibition incubated for 24 hrs in presence of 175.5 ug/mL K+ by Muller Hinton broth based dilution assay; type: functional
Escherichia coli [17] = experiment: Antimicrobial activity against Escherichia coli ATCC25922 assessed as log reduction in microbial load at 8 times of MIC measured at 0.5 hr by time-kill kinetics assay; type: functional
Candida albicans [18] = experiment: Antimicrobial activity against Candida albicans ATCC10231 assessed as fungal growth inhibition incubated for 48 hrs in presence of 24.3 ug/mL Mg2+ by Sabouraud Dextrose broth based dilution assay; type: functional
Staphylococcus aureus [19] = experiment: Antimicrobial activity against Staphylococcus aureus ATCC29213 assessed as bacterial growth inhibition incubated for 24 hrs by Muller Hinton broth based dilution assay; type: functional
Candida albicans [20] = experiment: Antimicrobial activity against Candida albicans ATCC10231 assessed as fungal killing at 8 times of MIC measured at 1 hr by time-kill kinetics assay; type: functional, organism-based
Klebsiella pneumoniae [21] = experiment: Antimicrobial activity against Klebsiella pneumoniae ATCC10031 assessed as bacterial growth inhibition incubated for 24 hrs by Muller Hinton broth based dilution assay; type: functional
Escherichia coli [22] = experiment: Disruption of preformed biofilm in Escherichia coli ATCC25922 assessed as residual preformed biofilm at […] ug/mL incubated for 24 hrs by crystal violet staining based analysis relative to control; type: functional; conditions: dose […] microg/ml, 1.56 ug/mL
Candida albicans [23] = experiment: Antimicrobial activity against Candida albicans ATCC10231 assessed as fungal killing at 8 times of MIC measured at 0.5 hr by time-kill kinetics assay; type: functional, organism-based
Candida albicans [24] = experiment: Antimicrobial activity against Candida albicans ATCC10231 assessed as fungal killing at 4 times of MIC measured at 0.5 hr by time-kill kinetics assay; type: functional, organism-based

| Structure (SMILES) | log(activity) (Pseudomonas aeruginosa) | viability at 24 h, 3.125 ug/mL [1] [%] | inhibition at 0.39 µg/mL (Escherichia coli [2]) [%] | log(activity) (Staphylococcus aureus [3]) | viability at 24 h, 3.125 ug/mL [4] [%] | Activity (Escherichia coli [5]) [%] | MIC (Candida albicans [6]) [mg/L] | MIC (Klebsiella pneumoniae [7]) [mg/L] | MIC (Candida albicans [8]) [mg/L] | Activity (Staphylococcus aureus [9]) | Activity (Staphylococcus aureus [10]) | HC50 at 1 h [11] [µg/mL] | viability at 24 h, 12.5 ug/mL [12] [%] | MIC (Candida albicans [13]) [mg/L] | inhibition at 3.125 µg/mL (Escherichia coli [14]) [%] | MIC (Staphylococcus aureus [15]) [mg/L] | MIC (Escherichia coli [16]) [mg/L] | log(activity) (Escherichia coli [17]) | MIC (Candida albicans [18]) [mg/L] | MIC (Staphylococcus aureus [19]) [mg/L] | further results |
| --- | --- | --- | --- | --- | --- | --- | --- | --- | --- | --- | --- | --- | --- | --- | --- | --- | --- | --- | --- | --- | --- |
| CC(C)=CCN1CCCc2cc(OCCCCCCCCNC(=N)N)ccc21 | 3.4 | 95.5 | 13.5 | >3 | 99.5 | 96.08 | 0.78 (≈ 2.02 µM) | 3.12 (≈ 8.08 µM) | 0.78 | Dose-Dependent Effect | inactive | > 200 | 90 | 0.78 | 92.8 | 0.78 | 3.12 | >3 | 1.56 | 1.56 (≈ 4.04 µM) | Activity (Candida albicans [20]): Active; MIC (Klebsiella pneumoniae [21]): 3.12 mg/L (≈ 8.08 µM); Activity (Escherichia coli [22]): 85.82% |
| CCCCCCCCCN1CCCc2cc(OCCCCNC(=N)N)ccc21 | 3.2 | 95.5 | 21.6 | >3 | 98.3 | 93.41 | 0.78 (≈ 2.01 µM) | 1.56 (≈ 4.01 µM) | 0.78 | Dose-Dependent Effect | inactive | > 200 | 91.9 | 0.78 | 96.2 | 0.78 | 1.56 | >3 | 1.56 | 1.56 (≈ 4.01 µM) | Activity (Candida albicans [23]): Active; Activity (Candida albicans [24]): Active; MIC (Klebsiella pneumoniae [21]): 1.56 mg/L (≈ 4.01 µM); Activity (Escherichia coli [22]): 72.32% |
